“And” between values parts separate entries of the source, which are not always exact repeats. Equal entries are not always repeated. Toxic doses and inconclusive results are not listed. Non-standard residues stand in square brackets, D forms with d. Residues, ends and D or L forms follow the SMILES beside them. ξ: configuration not given here. ξPhe(4-N(CH2CH2Cl)2) = NC(Cc1ccc(N(CCCl)CCCl)cc1)C(=O)O

The assay concerns BDF1 mice, P388 leukemia ip, median survival T/C. The experiment in a line: NCI In Vivo Anticancer Drug Screen. Data for tumor model P388 Leukemia (intraperitoneal) in B6D2F1 (BDF1) mice. To be noted: endpoint: median survival time, higher = longer survival. Put shortly:
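Reported as T/C, where T is the survival measurement in dosed animals and C the same measurement in vehicle controls.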

Where [1] appears, read: dose: 50.0 mg/kg/injection, schedule: Q01DX009 (ip), vehicle: saline with Tween-80.
[2] abbreviates: dose: 50.0 mg/kg/injection, schedule: Q01DX009 (ip), vehicle: saline.
Setting [3] is: dose: 100.0 mg/kg/injection, schedule: Q01DX009 (ip), vehicle: saline.
Setting [4] is: dose: 200.0 mg/kg/injection, schedule: Q01DX009 (ip), vehicle: saline with Tween-80.
Setting [5] is: dose: 200.0 mg/kg/injection, schedule: Q01DX009 (ip), vehicle: saline.
[6] abbreviates: dose: 6.25 mg/kg/injection, schedule: Q01DX009 (ip), vehicle: saline.
Where [7] appears, read: dose: 100.0 mg/kg/injection, schedule: Q04DX003 (ip), vehicle: saline with Tween-80.
Where [8] appears, read: dose: 400.0 mg/kg/injection, schedule: Q04DX003 (ip), vehicle: saline.
[9] abbreviates: dose: 100.0 mg/kg/injection, schedule: Q04DX003 (ip), vehicle: Klucel (hydroxypropylcellulose) (HPC).
[10] abbreviates: dose: 200.0 mg/kg/injection, schedule: Q04DX003 (ip), vehicle: Klucel (hydroxypropylcellulose) (HPC).
[11] abbreviates: dose: 100.0 mg/kg/injection, schedule: Q01DX009 (ip), vehicle: saline with Tween-80.
The mark [12] stands for this setting: dose: 400.0 mg/kg/injection, schedule: Q01DX009 (ip), vehicle: saline.
The mark [13] stands for this setting: dose: 25.0 mg/kg/injection, schedule: Q01DX009 (ip), vehicle: saline with Tween-80.

Take `CCCCOC1OCN(CCOC)CC1(C)C` (stereo unspecified): the T/C under setting [1] was 109 % of control; the T/C under setting [2] is 116 % of control; the T/C under setting [3] is 109 % of control; the T/C under setting [4] is 153 % of control; the T/C under setting [5] was 118 % of control.
Consider `OCCOCCOCCN1CCN(CCCN2c3ccccc3Sc3ccc(C(F)(F)F)cc32)CC1`, for which the T/C is 91 % of control (dose: 0.79 mg/kg/injection, schedule: Q01DX009 (ip), vehicle: saline) and 112 % of control under setting [6].
`Cc1nc2c(NC(=O)CCl)nn(C)c2nc1C`: the T/C runs as follows: (dose: 25.0 mg/kg/injection, schedule: Q04DX003 (ip), vehicle: saline with Tween-80) 105 % of control; (dose: 50.0 mg/kg/injection, schedule: Q04DX003 (ip), vehicle: saline with Tween-80) 110 % of control; under setting [7], 95 % of control.
Regarding `c1ccc2c(c1)[nH]c1nc3ncncc3nc12`, the T/C was 122 % of control (dose: 100.0 mg/kg/injection, schedule: Q04DX003 (ip), vehicle: saline); 100 % of control (dose: 200.0 mg/kg/injection, schedule: Q04DX003 (ip), vehicle: saline); 100 % of control under setting [8].
`CCCCCCC1CCC(N)CC1` (stereo unspecified): the T/C by setting is: (dose: 12.5 mg/kg/injection, schedule: Q01DX009 (ip), vehicle: Klucel (hydroxypropylcellulose) (HPC)) 97 % of control; (dose: 25.0 mg/kg/injection, schedule: Q01DX009 (ip), vehicle: Klucel (hydroxypropylcellulose) (HPC)) 101 % of control.
As for `O=C(O)c1cc(-c2ccc(Cl)cc2)nc2c(Cl)cccc12`, the T/C (dose: 50.0 mg/kg/injection, schedule: Q01DX009 (ip), vehicle: Klucel (hydroxypropylcellulose) (HPC)) was 100 % of control; the T/C (dose: 50.0 mg/kg/injection, schedule: Q04DX003 (ip), vehicle: Klucel (hydroxypropylcellulose) (HPC)) is 91 % of control; the T/C (dose: 100.0 mg/kg/injection, schedule: Q01DX009 (ip), vehicle: Klucel (hydroxypropylcellulose) (HPC)) was 100 % of control; the T/C under setting [9] is 86 % of control; the T/C under setting [10] was 86 % of control.
Regarding `CCOC(=O)C(Cc1ccc(N(CCCl)CCCl)cc1)NC(=O)C(CCC(=O)O)NC(=O)C(CO)NC(=O)C(CCC(=O)O)NC(=O)C(N)CO` (stereo unspecified) (H-SESE[ξPhe(4-N(CH2CH2Cl)2)]-OEt; configuration not given here), the T/C (dose: 5.0 mg/kg/injection, schedule: Q04DX003 (ip), vehicle: water) was 97 % of control; the T/C (dose: 10.0 mg/kg/injection, schedule: Q04DX003 (ip), vehicle: water) is 99 % of control; the T/C (dose: 20.0 mg/kg/injection, schedule: Q04DX003 (ip), vehicle: water) was 100 % of control; the T/C (dose: 40.0 mg/kg/injection, schedule: Q04DX003 (ip), vehicle: water) is 100 % of control.
In the case of `CN(C)c1ccc(-c2nc3ccccn3c2N)cc1`, the T/C by setting is: (dose: 1.56 mg/kg/injection, schedule: Q01DX009 (ip), vehicle: saline) 105 % of control; (dose: 3.13 mg/kg/injection, schedule: Q01DX009 (ip), vehicle: saline) 96 % of control; under setting [6], 113 % of control.
With `Nc1[nH]nc2nccnc12`, the T/C is, setting by setting: under setting [11], 108 % of control; under setting [7], 100 % of control; under setting [4], 100 % of control; (dose: 200.0 mg/kg/injection, schedule: Q04DX003 (ip), vehicle: saline with Tween-80) 104 % of control; (dose: 400.0 mg/kg/injection, schedule: Q01DX009 (ip), vehicle: saline with Tween-80) 100 % of control; (dose: 400.0 mg/kg/injection, schedule: Q04DX003 (ip), vehicle: saline with Tween-80) 109 % of control.
As for `CC1(C)CC(=O)CC(C)(C)N1O`, the T/C reads like this: under setting [9], 100 % of control; under setting [10], 100 % of control; (dose: 400.0 mg/kg/injection, schedule: Q04DX003 (ip), vehicle: Klucel (hydroxypropylcellulose) (HPC)) 104 % of control.
Take `C=C(C)C(=O)OC1CCCCC1`: the T/C runs as follows: under setting [3], 111 % of control; under setting [5], 100 % of control; under setting [12], 117 % of control.
As to `O=C(CNC(=O)n1ccnc1)N/N=C/c1ccccc1O`, the T/C is 102 % of control (dose: 50.0 mg/kg/injection, schedule: Q01DX005 (ip), vehicle: saline with Tween-80); 98 % of control (dose: 100.0 mg/kg/injection, schedule: Q01DX005 (ip), vehicle: saline with Tween-80); 100 % of control (dose: 200.0 mg/kg/injection, schedule: Q01DX005 (ip), vehicle: saline with Tween-80).
With `CC(=O)OC1C=CCC2C(=O)C3=C(C(=O)c4ccccc4C3=O)C(=O)C12` (stereo unspecified), the T/C was 98 % of control (dose: 3.12 mg/kg/injection, schedule: Q01DX009 (ip), vehicle: saline with Tween-80); 98 % of control (dose: 6.25 mg/kg/injection, schedule: Q01DX009 (ip), vehicle: saline with Tween-80); 107 % of control (dose: 12.5 mg/kg/injection, schedule: Q01DX009 (ip), vehicle: saline with Tween-80); 112 % of control under setting [13]; 112 % of control under setting [1].
For the compound `CCCCC(C)C(=O)CC(SCC)c1ccccc1` (stereo unspecified), the T/C by setting is: under setting [1], 103 % of control; under setting [11], 114 % of control; under setting [4], 105 % of control.
For the compound `CN(C)C1CCc2ccccc2C1OC(=O)/C=C/c1ccccc1` (stereo unspecified), the T/C was 100 % of control under setting [13], 102 % of control under setting [1] and 102 % of control under setting [11].
With `C=CC(=O)NCCC(=O)O`, the T/C reads like this: under setting [2], 100 % of control; under setting [3], 90 % of control; under setting [5], 94 % of control.
For `COCCCC/C(=N\OCCN)c1ccc(C(F)(F)F)cc1` the same measures were 103 % of control, 112 % of control and 108 % of control.
Consider `C=C1C(=O)CCC1C(=O)O` (stereo unspecified), for which the T/C by setting is: under setting [3], 100 % of control and 109 % of control; (dose: 178.0 mg/kg/injection, schedule: Q04DX003 (ip), vehicle: saline) 106 % of control; (dose: 266.0 mg/kg/injection, schedule: Q04DX003 (ip), vehicle: saline) 108 % of control; under setting [12], 150 % of control and 154 % of control and 162 % of control; under setting [8], 123 % of control; (dose: 600.0 mg/kg/injection, schedule: Q01DX009 (ip), vehicle: saline) 170 % of control and 182 % of control. In addition, under “dose: 900.0 mg/kg/injection, schedule: Q01DX009 (ip), vehicle: saline”, the T/C is 175 % of control.
`COc1ccc2c(c1)CCC(=O)O2`: the T/C (dose: 100.0 mg/kg/injection, schedule: Q04DX003 (ip), vehicle: saline sonified) is 91 % of control; the T/C (dose: 200.0 mg/kg/injection, schedule: Q04DX003 (ip), vehicle: saline sonified) is 95 % of control; the T/C (dose: 400.0 mg/kg/injection, schedule: Q04DX003 (ip), vehicle: saline sonified) is 100 % of control.
With `COc1ccccc1-n1c(=O)c(N=Nc2ccccc2)c(O)n(-c2ccccc2C)c1=S`, the T/C (dose: 100.0 mg/kg/injection, schedule: Q01DX001 (ip), vehicle: saline with Tween-80) was 95 % of control and the T/C (dose: 200.0 mg/kg/injection, schedule: Q01DX001 (ip), vehicle: saline with Tween-80) was 95 % of control.
Turning to `CC(=O)OC1(C)CC(C)C(O)C(C(O)CC2CC(=O)NC(=O)C2)C1` (stereo unspecified), the T/C (dose: 0.5 mg/kg/injection, schedule: Q01DX010 (ip), vehicle: water) was 120 % of control; the T/C (dose: 2.0 mg/kg/injection, schedule: Q01DX010 (ip), vehicle: water) was 150 % of control and 160 % of control; the T/C (dose: 3.0 mg/kg/injection, schedule: Q01DX010 (ip), vehicle: water) is 190 % of control; the T/C (dose: 4.0 mg/kg/injection, schedule: Q01DX010 (ip), vehicle: water) was 90 % of control and 110 % of control.
For the compound `CC(=O)OCCCl`, the T/C was 99 % of control (dose: 50.0 mg/kg/injection, schedule: Q04DX003 (ip), vehicle: suspension in saline); 103 % of control (dose: 100.0 mg/kg/injection, schedule: Q04DX003 (ip), vehicle: suspension in saline); 103 % of control (dose: 200.0 mg/kg/injection, schedule: Q04DX003 (ip), vehicle: suspension in saline); 114 % of control (dose: 400.0 mg/kg/injection, schedule: Q04DX003 (ip), vehicle: suspension in saline).
On to `COc1c(Cl)cc2c(c1OC)N(C)C1N3C(=O)C4(C)SSC3(C(=O)N4C)C(O)C21O` (stereo unspecified), for which the T/C runs as follows: (dose: 0.12 mg/kg/injection, schedule: Q01DX009 (ip), vehicle: Klucel (hydroxypropylcellulose) (HPC)) 86 % of control; (dose: 0.25 mg/kg/injection, schedule: Q01DX009 (ip), vehicle: Klucel (hydroxypropylcellulose) (HPC)) 109 % of control.
